Results reported in US20240352066A1, “ANTIMICROBIAL COMPOUNDS AND THE METHOD OF USE” (priority 2021, published 2024).
Values after ≈ are worked out from the molar mass of the structure shown. Where a SMILES comes first, the peptide text is derived from it. [ ]: non-standard residue; d: D form. N(tridecyl)Gly = CCCCCCCCCCCCCNCC(=O)O; N(4-F-Bzl)Gly = O=C(O)CNCc1ccc(F)cc1; Gly(N-2-aminoethyl) = NCCNCC(=O)O; Nspe = C[C@H](NCC(=O)O)c1ccccc1; Nlys = NCCCCNCC(=O)O

Columns and labels:
C. neoformans = type: cell-based, Cryptococcus neoformans; conditions: 72 h
Experimental: The minimum inhibitory concentration (MIC) of peptoids against fungal pathogens C. albicans and C. neoformans was determined following CLSI guidelines (CLSI. Reference method for broth dilution antifungal susceptibility testing of yeasts; approved standard-third edition; CLSI document M27-A3. (Clinical and Laboratory Standards Institute, 2008). […] This inoculant was diluted 1:100 into RPMI-MOPS and then further diluted 1:20 into RPMI-MOPS. 198 μL of inoculant was seeded into each well of a 96 well black-walled plate. 2-fold serial dilutions of 100× peptoid solutions were prepared in water and 2 μL of peptoid were added to each well in triplicate. […] MIC was defined as the lowest concentration of compound preventing fungal growth. This assay was repeated 3 times on separate days with each compound. […] The addition of 0.1 mL cell solution to 9.9 mL of RPMI-MOPS produced a 1:100 cell solution. After vortexing, 0.5 mL of the […] was added to 9.5 mL RPMI-MOPS to produce a 1:20 cell solution. 198 μL of the 1:20 solution was added to the wells of an opaque 96-well plate, apart from the wells designated for the medial control. […] Amphotericin B was used as a positive control, and sterile water was used for the vehicle control. The plates were incubated for 72 hours at 35° C. After incubation, the concentration of compound resulting in no visual growth was recorded as the MIC. All assays performed in biological triplicate on different days.

[1] = tested on: human red blood cells (hRBC); assay: Hemolytic activity against human red blood cells; type: cell-based; conditions: Example 2; same donor sample of hRBCs
Experimental: Hemolytic activity was determined using single donor human red blood cells (hRBC). hRBCs were washed with PBS and centrifuged (1000 RPM; 10 minutes) three times, resuspended in PBS and aliquoted (100 μL) in 96 well plates. 2-fold serial dilutions of 10× peptoid final concentrations in PBS were prepared and added to wells in triplicate. PBS was used as a vehicle control and 1% Triton X-100 as a positive control. Plates were incubated for 1 hour (37° C.; 5% CO2) then centrifuged (1000 RPM; 10 minutes) and supernatant was diluted 1:20 into PBS in a new 96-well plate. Plates were read on a SpectraMax M5 plate reader (Abs. 405 nm). Percent hemolysis was determined by the following equation: […]
GraFit was used to determine concentrations at 50% hemolytic activity (HC50) and the Hill coefficient (H). Hemolytic activity at 10% (HC10) was then determined by the following equation: […]
The hemolytic activity of select peptoids was determined as done previously (Green et al. ACS medicinal chemistry letters 12 9, 1470-1477 (2021); Middleton et al. Bioorganic & medicinal chemistry letters 28 22, 3514-3519 (2018)). Selected peptoids were prepared in 2-fold serial dilutions in PBS at the desired concentrations. Human red blood cells (hRBCs, 9 mL) were centrifuged at 1000 rpm for 10 minutes, and the supernatant was removed and discarded. A 10 mL aliquot of PBS was used to resuspend the hRBCs which were centrifuged again at 1000 rpm for 10 minutes. This PBS wash was completed two more times for a total of three washes. A 9 mL aliquot of PBS was added to the hRBCs, and 100 μL of cell solution was added to individual wells of a 96-well plate. Peptoid solutions (11.1 μL) were added to the appropriate wells in triplicate. A vehicle control of PBS and positive control of 1% Triton X-100 were added to wells in triplicate.
The plate was incubated at 37° C. for 1 hour and centrifuged at 1000 rpm for 10 minutes. For each well, 5 μL of supernatant was transferred to 95 μL of PBS in a new 96-well plate. The absorbance at 405 nm was measured using a SpectraMax M5 Plate Reader, and the percent hemolysis was calculated as follows: […]

[2] = Mammalian cytotoxicity, MTT, HepG2; type: cell-based, human; conditions: human, HepG2 hepatocellular carcinoma cells
Experimental: Hepatocellular carcinoma (HepG2), mouse fibroblast (3T3), human lung (HPL1A), and human keratinocyte (HaCat) cells were cultured in Dulbecco modified eagle media (DMEM) containing 10% fetal bovine serum (FBS) and 1% penicillin, streptomycin, and glutamine (PSG) at 37° C. and 5% CO2. Cells were collected and adjusted to […] to 4×10^5 cells/mL in phenol-red free DMEM and plated (100 μL) 96 well plates. 2-fold serial dilutions of 10× peptoid (11.1 μL) were added to each well in triplicate. Water (vehicle) was used as a negative control. Plates were incubated at 37° C. in 5% CO2 for 72 hours. Thiazolyl blue tetrazolium bromide (MTT) was added to each well (5 mg/mL; 20 μL) and incubated for 3 hours. Media was removed, DMSO (100 μL) was added, and plates were incubated at 37° C. for 10 minutes. Plates were read on a SpectraMax M5 plate reader (Abs. 570 nm). The concentration of compound resulting in a 50% reduction in growth compared to control (toxicity dose 50%; TD50) was determined using GraFit. This procedure was repeated three times on separate days.
Cytotoxicity against HepG2 hepatocellular carcinoma cells was done as previously described (Green et al. ACS infectious diseases, (2022); Corson et al. ACS medicinal chemistry letters 7 12, 1139-1144 (2016)). HepG2 cells were maintained in culture in T-75 flasks using Dulbecco's Modified Eagle's Media (DMEM) with phenol red pH indicator and supplemented with 10% fetal bovine serum (FBS) and 1% penicillin, streptomycin, and glutamine (PSG). The cells were incubated at 37° C. and 5% CO2 in a humidified incubator until desired confluency was achieved. The media was removed from the flask, and the cells were washed 1× with 10 mL of phosphate-buffered saline (PBS; 11.8 mM phosphate, 140.4 mM NaCl; pH 7.4) which was then discarded. To remove the adhered cells from the flask, 2 mL of trypsin was added, and the cells were incubated for 10 minutes. To quench the trypsin, 8 mL of phenol red-free DMEM with 10% FBS and 1% PGS was added, and the cell solution was transferred to a 15 mL conical tube. After the cells were pelleted by centrifugation at 1000 rpm for 5 minutes, the supernatant was poured off and cells resuspended in the volume of phenol red-free media needed for the assay. Cell concentration was determined by counting with a hemocytometer, and the solution was diluted with media until a concentration of 1×10^5 cells/mL was achieved. A 100 μL aliquot of cell solution was added to each well of a 96-well plate, apart from the 3 wells used for a media control. Cells were incubated for 2-3 hours at 37° C. and 5% CO2 until cells were adherent.
Compound stocks of 20 mg/mL were used to prepare 2-fold serial dilutions of each compound in sterile water, giving final concentrations of 200, 100, 50, 25, 12.5, 6.25, 3.13 and 1.56 μg/mL. 11.1 μL of prepared compound solutions was added to the appropriate wells in triplicate. A negative vehicle control of sterile water, as well as the aforementioned media control, were used. The plates were incubated for 72 hours at 37° C. and 5% CO2. After incubation, 20 μL of 5 mg/mL 3-(4,5-dimethylthiazol-2-yl)-2,5-diphenyltetrazolium bromide (MTT) in water was added to each well. The plate was incubated for 3 hours at 37° C. and 5% CO2. Media was removed from each well using a sterile glass Pasteur pipette. 100 μL of DMSO was added to each well and incubated for 15 minutes at 37° C. Absorbance was read at 570 nm using a SpectraMax M5 Plate Reader. This MTT assay was performed in biological duplicate unless discrepant results were observed. If this was the case, the assay was performed in biological triplicate for further verification. The reported value is the average of biological replicates with standard deviation.

C. albicans = assay: Peptoid library agar diffusion (PLAD) screening of library RGL8; type: cell-based, Candida albicans; conditions: RPMI-MOPS media
Description: Antimicrobial peptoids of the present disclosure may have biological activity. Biological activity can be antimicrobial activity against a microbe, e.g., a fungal pathogen, a bacterial pathogen, or a combination thereof. A peptoid library agar diffusion (PLAD) assay may be used to identify peptoids that have antimicrobial activity (Fischer et al., ACS Comb. Sci. 18, 287-291 (2016); Corson et al., ACS Med. Chem. Lett. 7, 1139-1144 (2016); Turkett et al., ACS Comb. Sci. 18, 287-291 (2016)). The PLAD assay uses a PLAD chemical linker. […] Beads containing the PLAD linked peptoids are embedded in an agar medium where the agar medium is inoculated with the microbe of interest. The β-strand peptoid is released by a reducing reagent. The reducing agent cleaves a disulfide within the PLAD linker, allowing the β-strand peptoid to interact with microbes around the bead. If the released peptoid has antimicrobial activity, a zone of inhibited growth will be present. The α-strand peptoid remains attached to the bead during the screening process. […] The chemical cleavage of the α-strand peptoid is be accomplished at a C-terminal methionine of the PLAD linker using cyanogen bromide. […] The PLAD assay may be adapted to screen a peptoid of interest against different types of microbes of interest through slight modifications of the assay parameters. […]

Molecule | C. neoformans MIC (C. neoformans) | hRBC HC10 [1] | CC50 at 72 h [2] | PLAD screening result (zone of inhibited fungal growth) (C. albicans)
CCCCCCCCCCCCCNCC(=O)N(CC(=O)N(CCCCN)CC(=O)N(CCN)CC(=O)N(CC(N)=O)[C@@H](C)c1ccccc1)[C@@H](C)c1ccccc1 [Compound 16] (H-[N(tridecyl)Gly][Nspe][Nlys][Gly(N-2-aminoethyl)][Nspe]-NH2) | 1.56 to 3.13 µg/mL | 38 ± 11 µg/mL | 167 ± 104 µg/mL (≈ 207 µM) | 
Ntri-Ncha-Ncha-Ncha-Ncha |  |  |  | hit
CCCCCCCCCCCCCNCC(=O)N(CC(=O)N(CCCCN)CC(=O)N(CCN)CC(=O)N(CC(N)=O)Cc1ccc(F)cc1)Cc1ccc(F)cc1 [Compound 17] (H-[N(tridecyl)Gly][N(4-F-Bzl)Gly][Nlys][Gly(N-2-aminoethyl)][N(4-F-Bzl)Gly]-NH2) | 1.56 to 3.13 µg/mL | 59 ± 22 µg/mL | 150 ± 7 µg/mL (≈ 184 µM) | 
